Experiment [1] relates to magnocellular and parvocellular BLA neurons. The settings on record: bath application 10 μM; cells clamped at 0 mV; 10 Hz train; n=6 magnocellular, n=6 parvocellular.
Description: Male mice (mean-PND 45 days) were anesthetized by isoflurane and their brains were dissected. By using a vibratome (VT1000S, Leica) 300 μm-thick parasagittal slices containing the basolateral amygdala were prepared in oxygenated cutting solution at ˜4° C. Slices were then incubated at −23° C. in oxygenated artificial cerebrospinal fluid (ACSF). The cutting solution contained 3 mM KCl, 0.5 mM CaCl2, 10 mM MgCl2, 25 mMNaHCO3, 1.2 mM NaHPO4, 10 mM d-glucose, 230 mM sucrose, saturated with 95% O/5% CO2 (pH 7.3, osmolarity 340 mOsm). […]
Whole-cell recordings in current-clamp or voltage-clamp mode were performed by using an infrared differential interference contrast microscope (BX51, Olympus) with a water immersion 40× objective (N.A. 0.8), and equipped with four automatic manipulators (Luigs & Neumann) and a CCD camera (Orca R2, Hamamatsu). […] Access resistance was monitored throughout the duration of the experiment and data acquisition was suspended whenever the resting membrane potential was depolarized above −50 mV or the access resistance was beyond 20 MΩ. […]
Optogenetic stimulation was achieved through a 460-nm LED light source (XLED1, Lumen Dynamics) driven by TTL input with a delay onset of 25 μs (subtracted off-line). […] In voltage-clamp cells were held at 0 mV for IPSC measurements, whereas, in current mode, EPSP and action potentials were measured at resting potentials. […]
Experiment [2] concerns AMPA and NMDA receptors in the NAcc. Nature of the experiment: Tail suspension test with optical reactivation of dentate gyrus positive memory cells, glutamate antagonists infused into the NAcc. The format is in vivo. The settings on record: stressed mice; bilateral infusion into NAcc (NBQX 22.3 mM, AP5 38.04 mM, 0.2 μl per hemisphere), 20 min before behavior; compared with saline. The protocol: Glutamate antagonists were bilaterally infused into the NAcc as follows: 0.2 μl per hemisphere of NBQX at a concentration of 22.3 mM to antagonize AMPA (α-amino-3-hydroxy-5-methyl-4-isoxazole propionic acid) receptors and 0.2 μl per hemisphere of AP5 at a concentration of 38.04 mM to antagonize NMDA (N-methyl-D-aspartate) receptors. Dopamine receptor antagonists were bilaterally infused into the NAcc as follows: 0.2 μl SCH23390 at a concentration of 6.16 mM to antagonize D1-like receptors and 0.2 μl raclopride at a concentration of 2.89 mM to antagonize D2-like receptors. A 26-gauge stainless steel double internal cannula (PlasticsOne) was used to bilaterally infuse each drug; the internal cannula was connected with a microsyringe pump by a PE20 tube to control the injection rate at 100 nl min^−1. The injection cannula was left connected for 5 min before removal to allow for diffusion. Finally, all behavior was performed 20 min following drug infusion.
Fibre optic implants on experimental mice were plugged into a patch cord before the tail suspension test. Each subject was hung by its tail from a bar 40 cm from the ground with a single piece of autoclave tape. […] An experimenter blind to each mouse condition and light treatment scored all the tail suspension videos by measuring the total time in seconds that each mouse spent struggling throughout the protocol.

The conditions of experiment [3]: reported in reference 28; cited from earlier work.

Molecules are shown by their SMILES.

Regarding `COc1ccc(-c2ccc(=N)n(CCCC(=O)O)n2)cc1` [gabazine], the “inhibitory postsynaptic currents (IPSCs) evoked by optogenetic stimulation of Ppp1r1b-ChR2+ and Rspo2-ChR2+ fibers” value in experiment [1] is reported as “blocked”.
Regarding `NS(=O)(=O)c1cccc2c1c([N+](=O)[O-])cc1nc(O)c(O)nc12` [NBQX], the “behavioral effects of optically reactivating dentate gyrus cells labelled by a positive experience in the TST” value in experiment [2] is on record as “blocked”.
On the same count and under the same terms, then `NC(CCCP(=O)(O)O)C(=O)O` (stereo not shown) [AP5], with “blocked”.
As for `CNC1(c2ccccc2Cl)CCCCC1=O` (stereo not shown) [ketamine], the “antidepressant effect in patients” value in experiment [3] is “rapid effects in a subset of patients”.

Source of the values: patent US20180154170A1, “METHODS AND COMPOSITIONS FOR TREATING MENTAL DISORDERS AND CONDITIONS” (priority 2015, published 2018).
